How the values were obtained:
[1] = tested on: neonatal rat ventricular myocytes; experiment: Cell viability (MTT) after ischemic treatment and post-ischemic reperfusion in primary cultures; assay type: cell-based; conditions: for effect of dbcAMP + PMA on cell viability under co-application of CFTR channel blocker: DP plus NPPB 50 µM, glibenclamide 500 µM, gemfibrozil 2 mM or 9AC 2 mM during ischemic treatment, MTT after 96 hours reperfusion
Method: Primary cultures of ventricular myocytes were prepared from the hearts of neonatal rats by enzyme treatment. M199+10% FBS was used as culture medium. To reduce the number of contaminating non-myocardial cells, the medium was supplemented with 100 µM BrdU during incubation. The primary cell cultures of rat myocardial cells were subjected to ischemic treatment (removal of glucose and oxygen) and post-ischemic reperfusion according to the following procedures. The medium was replaced with a glucose-free solution, which contained 108 mM NaCl, 0.5 mM MgCl2, 5.4 mM KCl, 1mM CaCl2, and 5 mM HEPES (pH adjusted to 7.4 with NaHCO3), and were incubated at 37°C for 8 hours under anaerobic conditions, which were created by replacing air with a gas mixture of 95% Ar and 5% CO2. Immediately after incubation, the solution was replaced with a glucose-containing normal medium (M199+10% FBS), and then left in a CO2 incubator (95% air (20% O2), 5% CO2, 37°C) for 96 hours (reperfusion: re-supply of glucose/reoxygenation). Cl^- channel blocker (NPPB) was administered to the primary cell cultures of rat ventricular myocytes 1 hour prior to ischemic treatment, or at the start of ischemic treatment that lasted 8 hours. Cl- channel blocker (NPPB) was also administered over a time period of 18 hours after the start of post-ischemic reperfusion. Cell viability was assayed using MTT. To ensure accuracy in viable cell count, the assay was performed using cells obtained 96 hours after the start of post-ischemic reperfusion (Figure 1).
Primary cultures of rat ventricular myocytes were prepared and cultured in the manner described in Example 1. The procedures of Example 1 were also used to expose the primary cultures of rat ventricular myocytes to ischemic treatment (removal of glucose and oxygen) and post-ischemic reperfusion.
(§1) During ischemic treatment, the primary cultures of rat ventricular myocytes were administered with CFTR channel activator (PKA activator dbcAMP (1mM) or PKC activator PMA (100 nM), or both (DP)), or CFTR channel activator + CFTR channel blocker (NPPB (50 µM), glibenclamide (500 µM), gemfibrozil (2 mM), or 9AC (2 mM)). Following administration, ischemia was induced for 8 hours, and, after 96 hours of subsequent reperfusion, cell viability was assayed using MTT (Figure 2).
as §1, with “(milrinone (0.73 µg, 1 ml), isoproterenol (10 nM), and” for “(PKA activator dbcAMP (1mM) or PKC activator”, “nM) used together (MIP)),” for “nM), or both (DP)),”, “3).” for “2).”

[2] = extended period (45 minutes); cited from earlier work
ischemic cardiac muscle = conditions: cited from earlier work; for effect on ischemic cardiac muscle: administered after a period of ischemia; for size of infarct in ischemic cardiac muscle: pre-ischemic administration
[3] = cited from earlier work
rat ventricular myocytes [4] = experiment: Nuclear DNA fragmentation (apoptosis) by Cell Death Detection ELISA, enrichment factor; assay type: cell-based; conditions: NPPB 50 µM or dbcAMP 1mM + PMA 100 nM
Method: Primary cultures of rat ventricular myocytes were prepared and cultured in the manner described in Example 1. The procedures of Example 1 were also used to expose the primary cultures of rat ventricular myocytes to ischemic treatment (removal of glucose and oxygen) and post-ischemic reperfusion. The primary cultures of rat ventricular myocytes were administered with CFTR channel activator (PKA activator dbcAMP (1mM) + PKC activator PMA (100 nM)), or CFTR channel blocker (NPPB (50 µM)). Administration was made at the start of ischemic treatment, which lasted 8 hours. Fragmentation of nuclear DNA in the cells was assayed immediately after ischemia or 96 hours after post-ischemic reperfusion (Figure 5). Specifically, DNA fragmentation was assayed using a method (DNA fragmentation detecting method (Cell Death Detection ELIZA kit^PLUS (Roche Diagnostics), which specifically detects […] that are characteristics of apoptotic cells. The result of measurement was obtained as enrichment factor, which was calculated according to the following formula. Enrichment factor (rate of nuclear DNA fragmentation) = absorbance of sample (dead cells)/absorbance of control (untreated cells) [formula]

rat ventricular myocytes [5] = experiment: Necrotic cell death by Hoechst 33342 / propidium iodide double staining immediately after ischemia; assay type: cell-based; conditions: Ventricular myocyte, NPPB 50 µM at start of ischemic treatment, after 8 hours of ischemia, group without reagent 44.4%, read-out: cells stained by PI
Method: Primary cultures of rat ventricular myocytes were prepared and cultured in the manner described in Example 1. The procedures of Example 1 were also used to expose the primary cultures of rat ventricular myocytes to ischemic treatment (removal of glucose and oxygen). […] Immediately after ischemia, cells were double stained to examine a rate of necrotic cell death, using Hoechst 33342 and propidium iodide (PI) according to a method known in the art. Hoechst 33342 stains the nucleus of all cells, and propidium iodide (PI) stains only dead cells with necrosis-induced membrane injury.

[6] = dbcAMP 1mM and/or PMA 100 nM during ischemic treatment, 8 hours ischemia, 96 hours reperfusion, MTT (Figure 2)

Cc1ccc(C)c(OCCCC(C)(C)C(=O)O)c1 [gemfibrozil]
effect of dbcAMP + PMA on cell viability under co-application of CFTR channel blocker [1]: completely abolished

CC(C)c1ccc(C(=O)NC(=N)N)cc1S(C)(=O)=O [cariporide]
effect on injury caused by post-ischemic reperfusion [2]: ineffective

Cc1[nH]c(=O)c(C#N)cc1-c1ccncc1 [milrinone, 1,6-dihydro-2-methyl-6-oxo[3,4'-bipyridine]-5-carbonitrile]
effect on ischemic cardiac muscle (ischemic cardiac muscle): do not exhibit any effect | size of infarct in ischemic cardiac muscle (ischemic cardiac muscle): effective in reducing the size of infarct | milrinone in the blood circulating bound to protein ([3]; blood): about 70% | excretion / metabolism ([3]; in vivo): released into urine without being metabolized | half-life ([3]; in vivo): 2 h

COc1ccc(Cl)cc1C(=O)NCCc1ccc(S(=O)(=O)NC(=O)NC2CCCCC2)cc1 [glibenclamide]
effect of dbcAMP + PMA on cell viability under co-application of CFTR channel blocker [1]: completely abolished

Nc1cc(-c2ccncc2)c[nH]c1=O [amrinone]
effect on ischemic cardiac muscle (ischemic cardiac muscle): do not exhibit any effect | size of infarct in ischemic cardiac muscle (ischemic cardiac muscle): effective in reducing the size of infarct

O=C(O)c1cc([N+](=O)[O-])ccc1NCCCc1ccccc1 [NPPB, 5-nitro-2-2(3-phenylpropylamino)-benzoate]
level of DNA fragmentation (rat ventricular myocytes [4]; 96 hours after reperfusion, compared with non-administered group): no significant difference | level of DNA fragmentation (rat ventricular myocytes [4]; immediately after 8 hours ischemia, compared with non-ischemic cells (score of 1)): the same | cell viability ([1]; 50 µM NPPB administered during ischemic treatment (8 hours), MTT 96 hours after start of reperfusion): significant reduction | effect of dbcAMP + PMA on cell viability under co-application of CFTR channel blocker [1]: completely abolished | cytotoxicity at 50 µM (rat ventricular myocytes [5]): 90.3%

CCCCCCCCCCCCCC(=O)O[C@@H]1[C@@H](C)[C@@]2(O)[C@@H](C=C(CO)C[C@]3(O)C(=O)C(C)=C[C@@H]23)[C@@H]2C(C)(C)[C@]12OC(C)=O [PMA, phorbol 12-myristate 13-acetate]
cell viability [1, 6]: could not produce the effect

CCCC(=O)Nc1ncnc2c1ncn2[C@@H]1O[C@@H]2COP(=O)(O)O[C@H]2[C@H]1OC(=O)CCC [dbcAMP, N6,2'-O-dibutyriladenosine-3':5'-cyclic monophosphate]
cell viability [1, 6]: could not produce the effect

Source: patent publication EP1839675A1, “NOVEL METHOD OF PROTECTING ISCHEMIC CARDIOPATHY” (Japan Science and Technology Agency, priority 2004, dated 2006)
